The results in this text go back to patent publication US9029409B2, “Isoxazolines as therapeutic agents” (AbbVie Inc., priority 2011, dated 2015).

In general, IC50 refers to the midpoint of a concentration-inhibition curve.

A value given as a limit tells only on which side of the number the result lay.

The experiment has as its target T1, recombinant human MMP13 catalytic domain (CD) (Homo sapiens, UniProt P45452).
T1 construct: catalytic domain (CD) construct encompassing residues 20-274 (SWISS-PROT P45452); made in house
In words: MMP-13 catalytic domain FRET enzyme assay. In kind it is biochemical. The following applies: recombinant human MMP-13 catalytic domain. As to the method:
A recombinant human MMP13 catalytic domain (CD) construct encompassing residues 20-274 (SWISS-PROT P45452) was generated by synthetic gene methods and bacterial expression. MMP-13 activity assays were performed using the recombinant human MMP-13 CD at a 0.4 nM concentration and the fluorogenic substrate (QXL-520)-K-P-L-A˜Nva-Dap(5-FAM)-A-R-NH2 (Anaspec cat #60554-01, San Jose, Calif.) at a 0.25 μM concentration in assay buffer containing […], pH 7.5, 10 mM CaCl2, 150 mM NaCl, 0.05% Brij 35. The assay is based on the cleavage of this substrate by MMP-13, resulting in decrease of FRET between the donor-acceptor pair and subsequent fluorescence enhancement. The assays were carried out in 384-well plates (Greiner cat #781076, Germany) for 60 min at RT. After the incubation period, the reaction was quenched by the addition of 5 μL of 500 mM EDTA (100 mM final concentration) (Rankem, Cat #E0120, India) mixed well and the rate of substrate hydrolysis was determined by monitoring change in fluorescence at excitation and emission wavelengths of 485 nm and 535 nm respectively. Fluorescence was measured on a Victor V5 plate reader (Perkin Elmer, Turku, Finland). The test compounds used for assessing the potency of inhibition of MMP-13 activity were dissolved in DMSO (final DMSO concentration in the assay was 5%). Selected compounds were also screened against full length MMP13 (R&D Systems (Cat. No. 511-MM-010), Minneapolis, Minn.) at 2 nM concentration using the same fluorogenic substrate mentioned above. The enzyme was activated using 1 m Mp-aminophenylmercuric acetate—APMA (Cat #A-9563, Sigma, Germany).
Data analysis: The percent inhibition of the enzyme activity in presence of test compounds were calculated using the equation, percent (%) Inhibition=100−[(Fi/Fc)*100] where Fc is the fluorescence corresponding to initial enzyme activity and Fi is the fluorescence corresponding to the enzyme activity in presence of inhibitor. The IC50 values were calculated by fitting the dose-response data to a sigmoidal curve fitting equation using Graph Pad prism software (Version 5, La Jolla, Calif.).
MMP13 Catalytic Domain (CD) Potency of the Described Examples Determined Using Time Resolved Fluorescence Resonance Energy Transfer (FRET) Enzyme Assays: […]
Turning to `COc1cc(CNC(=O)c2cc(C3=NOC(C4CCN(C(=O)N(C)C)CC4)C3)nc(C)n2)ccc1F` (stereo not drawn) [drawing 1061], the IC50 is below 0.01 µM.
`Cc1nc(C(=O)NCc2ccc(F)c(Cl)c2)cc(C2=NO[C@@H]([C@H]3CC[C@H](NC(=O)[C@H](C)O)CC3)C2)n1`: the half-inhibitory concentration (IC50) was in the range of 0.01 to 0.1 µM.
In the case of `COc1cc(CNC(=O)c2cc(C3=NOC(c4ccn(CC(=O)N(C)OC)c(=O)c4)C3)nc(C)n2)ccc1F` (stereo not drawn), the IC50 lay in the range of 0.01 to 0.1 µM.
The value for `Cc1nc(C(=O)NCc2ccc(F)c(Cl)c2)cc(C2=NOC(c3ccc(C#N)nn3)C2)n1` (stereo not drawn) was 0.01 to 0.1 µM; that for `COc1cc(CNC(=O)c2cc(C3=NOC(c4ccc(=O)n(CC(=O)N(C)OC)c4)C3)nc(C)n2)ccc1F` (stereo not drawn) was below 0.01 µM; that for `COc1cccc(CNC(=O)c2cc(C3=NOC(C4CCN(S(C)(=O)=O)CC4)C3)nc(C)n2)c1` (stereo not drawn) was below 0.01 µM.
Next, `COc1cc(CNC(=O)c2cc(C3=NOC([C@H]4CC[C@H](NC(=O)N(C)CC(O)CO)CC4)C3)nc(C)n2)ccc1F` (stereo partly drawn): below 0.01 µM.
Next, `COc1cc(CNC(=O)c2cc(C3=NOC([C@H]4CC[C@H](NC(=O)CN(C)C)CC4)C3)nc(C)n2)ccc1F` (stereo partly drawn): 0.01 to 0.1 µM; `COc1ccc(CNC(=O)c2cc(C3=NO[C@H]([C@H]4CO[C@@H](CO)CO4)C3)nc(C)n2)cc1` [drawing 923]: above 1 µM.
`COc1cc(CNC(=O)c2cc(C3=NOC([C@H]4CC[C@H](NC(C)=O)CC4)C3)nc(C)n2)ccc1F` (stereo partly drawn): the IC50 was below 0.01 µM.
The value for `Cc1nc(C(=O)NCc2ccc3c(c2)OCCO3)cc(C2=NO[C@H]([C@H]3CO[C@H](CO)CO3)C2)n1` was 0.01 to 0.1 µM.
Next, `COc1cc(CNC(=O)c2cc(C3=NOC([C@H]4CC[C@H](NC(=O)NCCO)CC4)C3)nc(C)n2)ccc1F` (stereo partly drawn): below 0.01 µM.
For the compound `COc1cc(CNC(=O)c2cc(C3=NOC(C4CCN(C(=O)CC#N)CC4)C3)nc(C)n2)ccc1F` (stereo not drawn) [drawing 881], the concentration for half-maximal inhibition (IC50) was 0.01 to 0.1 µM.
On to `COc1cc(CNC(=O)c2cc(C3=NOC(C(=O)N4CCCC4)C3)nc(C)n2)ccc1F` (stereo not drawn), for which the IC50 is above 1 µM.
The value for `CC(=O)NC[C@@H]1CO[C@@H]([C@@H]2CC(c3cc(C(=O)NCc4ccc(F)c(C)c4)nc(C)n3)=NO2)CO1` was below 0.01 µM; that for `COc1cccc(CNC(=O)c2cc(C3=NOC(C4CCN(C(=O)CO)CC4)C3)nc(C)n2)c1` (stereo not drawn) was 0.01 to 0.1 µM; that for `Cc1nc(C(=O)NCc2ccc(F)cc2)cc(C2=NOC(c3ccccn3)C2)n1` (stereo not drawn) was 0.01 to 0.1 µM.
Turning to `COc1ccc(CNC(=O)c2cc(C3=NOC(c4ccc(CN(C)C)cc4)C3)ccn2)cc1` (stereo not drawn), the IC50 is above 1 µM.
Next, `CNC(=O)Cn1cc(C2CC(c3cc(C(=O)NCc4ccc(F)c(OC)c4)nc(C)n3)=NO2)ccc1=O` (stereo not drawn): below 0.01 µM; `COc1ccc(CNC(=O)c2cc(C3=NOC(C)(c4ccc(Cl)cc4)C3)ccn2)cc1` (stereo not drawn): 0.1 to 1 µM; `COc1cc(CNC(=O)c2cc(C3=NOC(C4CCOCC4)C3)nc(C)n2)ccc1F` (stereo not drawn): below 0.01 µM.
Next, `COc1cc(CNC(=O)c2cc(C3=NO[C@@H](c4ccn(C)c(=O)c4)C3)nc(C)n2)ccc1F`: 0.1 to 1 µM; `Cc1nc(C(=O)NCc2ccncc2)cc(C2=NO[C@H]([C@H]3CO[C@H](CO)CO3)C2)n1`: 0.01 to 0.1 µM.
Regarding `COc1cc(CNC(=O)c2cc(C3=NOC([C@H]4CC[C@H](NC(=O)CC#N)CC4)C3)nc(C)n2)ccc1F` (stereo partly drawn), the IC50 is below 0.01 µM.
On to `Cc1nc(C(=O)NCc2ccc(F)cc2)cc(C2=NOC(c3ccc(=O)n(C)c3)C2)n1` (stereo not drawn), for which the IC50 fell in the range of 0.01 to 0.1 µM.
The value for `COc1cc(CNC(=O)c2cc(C3=NO[C@H](C4CCN(C(=O)CO)CC4)C3)nc(C)n2)ccc1F` was below 0.01 µM; that for `Cc1nc(C(=O)NCc2ccc(F)c(Cl)c2)cc(C2=NOC(C3CCN(C(=O)CO)CC3)C2)n1` (stereo not drawn) was 0.01 to 0.1 µM; that for `COc1cc(CNC(=O)c2cc(C3=NO[C@H]([C@H]4CO[C@H](CNS(C)(=O)=O)CO4)C3)nc(C)n2)ccc1F` was below 0.01 µM.
The value for `Cc1nc(C(=O)NCc2ccc(F)c(C)c2)cc(C2=NO[C@@H]([C@H]3CC[C@H](NC(=O)[C@H](C)O)CC3)C2)n1` was 0.01 to 0.1 µM.
Next, `COc1cc(CNC(=O)c2cc(C3=NOC(CC4CCN(S(C)(=O)=O)CC4)C3)nc(C)n2)ccc1F` (stereo not drawn): 0.01 to 0.1 µM; `COc1ccc(CNC(=O)c2cc(C3=NOC(c4ccc(OCCO)cc4)C3)nc(C)n2)cc1` (stereo not drawn): 0.01 to 0.1 µM.
For the compound `Cc1nc(C(=O)NCc2ccnc3ccccc23)cc(C2=NO[C@@H]([C@H]3CO[C@H](CO)CO3)C2)n1`, the IC50 is 0.1 to 1 µM.
On to `Cc1nc(C(=O)NCc2ccc(Cl)c(Cl)c2)cc(C2=NO[C@H]([C@H]3CO[C@H](CO)CO3)C2)n1`, for which the IC50 was above 1 µM.
Next, `COc1cc(CNC(=O)c2cc(C3=NOC(c4ccn(C)c(=O)c4)C3)nc(C)n2)ccc1F` (stereo not drawn): 0.01 to 0.1 µM; `Cc1nc(C(=O)NCc2ccc(F)c(F)c2)cc(C2=NO[C@H]([C@H]3CO[C@H](CO)CO3)C2)n1` [drawing 952]: 0.01 to 0.1 µM.
The value for `COc1cc(CNC(=O)c2cc(C3=NOC(c4ccc(=O)n(C)n4)C3)nc(C)n2)ccc1F` (stereo not drawn) was 0.01 to 0.1 µM.
The value for `Cc1nc(C(=O)NCc2ccc(F)c(F)c2)cc(C2=NOC(c3ccc(=O)n(C)c3)C2)n1` (stereo not drawn) was 0.01 to 0.1 µM; that for `COc1cc(CNC(=O)c2cc(C3=NOC(c4ccc(CN5CCS(=O)(=O)CC5)cc4)C3)nc(C)n2)ccc1F` (stereo not drawn) was below 0.01 µM.
On to `CNCC(C)N[C@H]1CC[C@H](C2CC(c3cc(C(=O)NCc4ccc(F)c(OC)c4)nc(C)n3)=NO2)CC1` (stereo partly drawn), for which the IC50 lay in the range of 0.01 to 0.1 µM.
Next, `COc1cccc(C2CC(c3cc(C(=O)NCc4ccc(F)c(OC)c4)nc(C)n3)=NO2)n1` (stereo not drawn): 0.01 to 0.1 µM.
On to `Cc1nc(C(=O)NCc2ccc(F)c(Cl)c2)cc(C2=NOC(c3ccc(=O)n(C)c3)C2)n1` (stereo not drawn), for which the IC50 is below 0.01 µM.
The value for `COc1cccc(CNC(=O)c2cc(C3=NO[C@H]([C@H]4CO[C@H](CO)CO4)C3)nc(C)n2)c1` was 0.01 to 0.1 µM; that for `COc1ccc(CNC(=O)c2cc(C3=NOC(c4ccc(OC)cc4)C3)nc(C)n2)cc1` (stereo not drawn) was 0.01 to 0.1 µM; that for `CCNC(=O)N1CCC(C2CC(c3cc(C(=O)NCc4ccc(F)c(OC)c4)nc(C)n3)=NO2)CC1` (stereo not drawn) [drawing 877] was 0.01 to 0.1 µM.
Take `COc1ccc(CNC(=O)c2cc(C3=NO[C@H]([C@H]4CO[C@H](CO)CO4)C3)nc(C)n2)cc1`: the IC50 is 0.01 to 0.1 µM.
On to `Cc1nc(C(=O)NCc2ccc(F)cc2)cc(C2=NOC(C3CCN(C(=O)CO)CC3)C2)n1` (stereo not drawn), for which the 50% inhibitory concentration (IC50) lay in the range of 0.01 to 0.1 µM.
Next, `COc1cc(CNC(=O)c2cc(C3=NO[C@H]([C@H]4CO[C@H](CNC(=O)[C@H](C)O)CO4)C3)nc(C)n2)ccc1F`: below 0.01 µM; `COc1cc(CNC(=O)c2cc(C3=NOC(C4CCN(C(=O)C5CC5)CC4)C3)nc(C)n2)ccc1F` (stereo not drawn) [drawing 875]: 0.01 to 0.1 µM; `COc1cc([C@@H](C)NC(=O)c2cc(C3=NOC(c4ccccc4)C3)nc(C)n2)ccc1F` (stereo partly drawn): above 1 µM.
The value for `Cc1nc(C(=O)NCc2ccc3c(c2)NC(=O)CO3)cc(C2=NOC(c3ccc(=O)n(C)c3)C2)n1` (stereo not drawn) was below 0.01 µM; that for `CNC(=O)c1ccc(C2CC(c3cc(C(=O)NCc4ccc(F)c(OC)c4)nc(C)n3)=NO2)nc1` (stereo not drawn) was 0.01 to 0.1 µM; that for `COc1cc(CNC(=O)c2cc(C3=NOC(CC4CCN(C(C)=O)CC4)C3)nc(C)n2)ccc1F` (stereo not drawn) was 0.01 to 0.1 µM.
Next, `COc1cc(CNC(=O)c2cc(C3=NOC(c4cc(C(N)=O)nn4C)C3)nc(C)n2)ccc1F` (stereo not drawn): 0.1 to 1 µM.
For the compound `Cc1nc(C(=O)NCc2ccc(F)c(C)c2)cc(C2=NOC(c3ccc(=O)n(C)c3)C2)n1` (stereo not drawn) [drawing 1015], the IC50 is below 0.01 µM.
Next, `Cc1nc(C(=O)NCc2ccnc3ccccc23)cc(C2=NO[C@H]([C@H]3CO[C@H](CO)CO3)C2)n1`: 0.1 to 1 µM; `COc1cccc(CNC(=O)c2cc(C3=NOC(C)(c4ccc(Cl)cc4)C3)ccn2)c1` (stereo not drawn): above 1 µM.
Next, `Cc1nc(C(=O)NCc2ccc(F)c(C)c2)cc(C2=NO[C@H]([C@H]3CO[C@H](CS(C)(=O)=O)CO3)C2)n1`: below 0.01 µM; `CNC(=O)NC[C@@H]1CO[C@@H]([C@@H]2CC(c3cc(C(=O)NCc4ccc(F)c(OC)c4)nc(C)n3)=NO2)CO1`: 0.01 to 0.1 µM.
`COc1cc([C@H](C)NC(=O)c2cc(C3=NOC(c4ccccc4)C3)nc(C)n2)ccc1F` (stereo partly drawn): the IC50 was above 1 µM.
Next, `CNC(=O)Cn1cc([C@H]2CC(c3cc(C(=O)NCc4ccc(F)c(OC)c4)nc(C)n3)=NO2)ccc1=O`: 0.01 to 0.1 µM.
